Data as given in patent publication US20110154513A1, “PROBE FOR VISUALIZING NEURAL ACTIVITY” (University of Toyama, priority 2008, published 2011).

Experiments:
hippocampal nerve cells = assay: Luminescence (photon count) of probes expressed in cultured hippocampal nerve cells after stimulation; type: cell-based, rat
Experimental: On day 18 of pregnancy, a rat fetus was taken out of a pregnant rat, and the brain was separated therefrom in cold PBS. Furthermore, brain slices containing hippocampal nerve cells were separated from the cerebrum. The separated hippocampal cells were reacted with 0.125% trypsin (protease) at room temperature for 20 minutes in a test tube such that adhesion factors on the cell surface were degraded to attenuate cell-cell adhesion. Then, the test tube was left standing for trypsin removal. After precipitation of the brain slices in the bottom of the test tube, the trypsin solution as a supernatant was removed by aspiration. Subsequently, a DMEM medium containing 10% serum was added to the test tube. The test tube was left standing again, and the supernatant was removed. The brain slices were dissociated into individual cells by repeating approximately 10 times aspiration and dropping using a plastic dropper. Then, the cells were cultured in a plastic dish.
On culture day 4, the plasmid encoding the fusion protein 1 of Example 1 was gene-transferred into the cells. The gene transfer method was performed using Lipofectamine 2000 in the same way as in the HEK293 cells. Two days after the gene transfer, the medium was replaced by an Opti-MEM medium (Invitrogen Corp.) containing 0.5 mM luciferin EF (Promega Corp.), a luminescent substrate of luciferase. The luminescence intensity was measured using a luminometer AEQUORIA (Hamamatsu Photonics K.K.). This apparatus counts the number of photons generated from cells during culture placed together with a plastic dish in a dark box. The measurement was performed for 1 consecutive hour, and the luminescence intensity at 1-minute intervals was plotted on the ordinate of a graph. Immediately before the measurement, the cells were stimulated with forskolin, glutamate, KCl, or the like.

actin polymerization = assay: Luminescence of IRES-linked split luciferase-actin fusion proteins in HEK293 cells with actin polymerization inhibitor; type: cell-based; conditions: inhibitor added 3 hours before measurement, varying concentrations
Excerpt: FIG. 7 is a graph showing results of Example 8. The graph depicts the relationship between an actin polymerization inhibitor concentration and luminescence from split luciferase-actin fusion proteins bound via an IRES sequence and expressed in HEK293 cells;
For preparing a form suitable for transgenic mouse preparation, plasmids were constructed for a fusion protein comprising two fusion proteins bound via an IRES sequence (the resultant fusion protein is referred to as a fusion protein 13: LucN-Actin-IRES-LucC-actin). LucC-Actin and LucN-Actin are thereby translated from one mRNA and expressed in cells. The gene transfer was performed in the same way as in Example 1. Moreover, in this experiment, an actin polymerization inhibitor latrunculin A was added into a medium 3 hours before luminescence measurement. Moreover, the luminescence measurement used a luminometer AEQUORIA (Hamamatsu Photonics K.K.).
This is the evidence that the luminescence of the prepared protein serves as an index for actin polymerization.

polymerized actin = assay: Rhodamine-phalloidin staining of polymerized actin in HEK293T cells; type: cell-based; conditions: varying concentrations of inhibitor
Experimental: FIG. 8 is a photograph showing results of Example 9. The photograph is an image of polymerized actin stained with rhodamine-phalloidin in the presence of varying concentrations of a polymerization inhibitor;
HEK293T cells were treated with latrunculin A and then fixed in 4% paraformaldehyde, and only polymerized actin was stained using F-Actin Visualization Biochem Kit (Cosmo Bio Co., Ltd.).
An image of polymerized actin stained with rhodamine-phalloidin in the presence of varying concentrations of the polymerization inhibitor was confirmed.

`[Cl-].[K+]` [KCl, potassium chloride] was tested, and the “increase in luminescence intensity by KCl stimulation” value (hippocampal nerve cells; fusion protein 1 expressed in nerve cells, compared to before addition of KCl) was “approximately 6 times” and the “effect of stimulation on luminescence intensity” value (hippocampal nerve cells; nerve cells expressing fusion protein 5, 50 mM KCl, alone or with additive) was “increases the luminescence intensity”.
`C/C1=C/C(=O)O[C@@H]2C[C@@H](CC[C@H](C)/C=C\C=C\CC1)O[C@@](O)([C@@H]1CSC(=O)N1)C2` [latrunculin A] was tested, and the “luminescence of split luciferase-actin probe” value (actin polymerization) was “decreased in a concentration-dependent manner” and the “polymerized actin (rhodamine-phalloidin staining)” value (polymerized actin) was “decreased in a concentration-dependent manner”.
For “wild-type luciferase: wild-type firefly luciferase (Promega Corp.), control experiment”, the “response of luminescence to KCl” value (hippocampal nerve cells; probe expressed in nerve cells, KCl stimulation) was “does not exhibit the response to KCl”.
